Patent US20100204156A1, “USE OF THYMOPENTIN AS A THERAPEUTIC AGENT” (priority 2007, published 2010)
Residues, ends and D or L forms follow the SMILES beside them.

System: drug-resistant Mycobacterium tuberculosis
Settings: 5 micrograms per ml

**Q.** Which “% inhibition” value does the source give for `CC(C)[C@H](NC(=O)[C@H](CC(=O)O)NC(=O)[C@H](CCCCN)NC(=O)[C@@H](N)CCCN=C(N)N)C(=O)N[C@@H](Cc1ccc(O)cc1)C(=O)O` [Thymopentin, Arg-Lys-Asp-Val-Tyr-OH] (H-RKDVY-OH) here?
**A.** 0.0%
